In ChEMBL document CHEMBL5724914, “Linking interpersonal differences in gut microbiota composition and drug biotransformation activity” (2024):

Assays:
[1] = The drug is tested on Z-013 corresponding to rabbit gut metagenome with ENA study accession number: PRJEB37062 and ENA sample accession number: ERS12561813 for biotransformation under anaerobic condition. The drug concentrations were measured over 9 timepoints collected between 0 and 24 hours of incubation by liquid-chromatography-coupled mass spectrometry (LC–MS); details: 2 µM
[2] = The drug is tested on Z-011 corresponding to mouse gut metagenome with ENA study accession number: PRJEB37062 and ENA sample accession number: ERS12561811 for biotransformation under anaerobic condition. The drug concentrations were measured over 9 timepoints collected between 0 and 24 hours of incubation by liquid-chromatography-coupled mass spectrometry (LC–MS); details: 2 µM
[3] = The drug is tested on Z-006 corresponding to mouse gut metagenome with ENA study accession number: PRJEB37062 and ENA sample accession number: ERS12561806 for biotransformation under anaerobic condition. The drug concentrations were measured over 9 timepoints collected between 0 and 24 hours of incubation by liquid-chromatography-coupled mass spectrometry (LC–MS); details: 2 µM
[4] = The drug is tested on WLS-370 corresponding to human gut metagenome with ENA study accession number: PRJEB37062 and ENA sample accession number: ERS12561793 for biotransformation under anaerobic condition. The drug concentrations were measured over 9 timepoints collected between 0 and 24 hours of incubation by liquid-chromatography-coupled mass spectrometry (LC–MS); details: 2 µM
[5] = The drug is tested on WLS-350 corresponding to human gut metagenome with ENA study accession number: PRJEB37062 and ENA sample accession number: ERS12561789 for biotransformation under anaerobic condition. The drug concentrations were measured over 9 timepoints collected between 0 and 24 hours of incubation by liquid-chromatography-coupled mass spectrometry (LC–MS); details: 2 µM
[6] = The drug is tested on WLS-082 corresponding to human gut metagenome with ENA study accession number: PRJEB37062 and ENA sample accession number: ERS12561751 for biotransformation under anaerobic condition. The drug concentrations were measured over 9 timepoints collected between 0 and 24 hours of incubation by liquid-chromatography-coupled mass spectrometry (LC–MS); details: 2 µM
[7] = The drug is tested on WLS-052 corresponding to human gut metagenome with ENA study accession number: PRJEB37062 and ENA sample accession number: ERS12561747 for biotransformation under anaerobic condition. The drug concentrations were measured over 9 timepoints collected between 0 and 24 hours of incubation by liquid-chromatography-coupled mass spectrometry (LC–MS); details: 2 µM
[8] = The drug is tested on WLS-039 corresponding to human gut metagenome with ENA study accession number: PRJEB37062 and ENA sample accession number: ERS12561746 for biotransformation under anaerobic condition. The drug concentrations were measured over 9 timepoints collected between 0 and 24 hours of incubation by liquid-chromatography-coupled mass spectrometry (LC–MS); details: 2 µM
[9] = The drug is tested on WLS-010 corresponding to human gut metagenome with ENA study accession number: PRJEB37062 and ENA sample accession number: ERS12561743 for biotransformation under anaerobic condition. The drug concentrations were measured over 9 timepoints collected between 0 and 24 hours of incubation by liquid-chromatography-coupled mass spectrometry (LC–MS); details: 2 µM
[10] = The drug is tested on WLS-007 corresponding to human gut metagenome with ENA study accession number: PRJEB37062 and ENA sample accession number: ERS12561742 for biotransformation under anaerobic condition. The drug concentrations were measured over 9 timepoints collected between 0 and 24 hours of incubation by liquid-chromatography-coupled mass spectrometry (LC–MS); details: 2 µM
[11] = The drug is tested on WLS-006 corresponding to human gut metagenome with ENA study accession number: PRJEB37062 and ENA sample accession number: ERS12561741 for biotransformation under anaerobic condition. The drug concentrations were measured over 9 timepoints collected between 0 and 24 hours of incubation by liquid-chromatography-coupled mass spectrometry (LC–MS); details: 2 µM
[12] = human gut metagenome, 24 h, 2 µM
[13] = human gut metagenome, 24 h, 2 µM; remark: listed apart in the source
[14] = human gut metagenome, 24 h, 2 µM; remark: listed apart in the source
[15] = human gut metagenome, 24 h, 2 µM; remark: listed apart in the source
[16] = human gut metagenome, 24 h, 2 µM; remark: listed apart in the source
[17] = human gut metagenome, 24 h, 2 µM; remark: listed apart in the source
[18] = human gut metagenome, 24 h, 2 µM; remark: listed apart in the source
[19] = human gut metagenome, 24 h, 2 µM; remark: listed apart in the source
[20] = human gut metagenome, 24 h, 2 µM; remark: listed apart in the source
Note: call rule not given here.

For `CCc1oc2ccccc2c1C(=O)c1cc(Br)c(O)c(Br)c1` [BENZBROMARONE], which “Bacterial Biotransformation” value [1] is on record?
Its value is “Compound NOT metabolized”.

And the “Bacterial Biotransformation” value [2]?
The value was “Compound metabolized”.

And the “Bacterial Biotransformation” value [3]?
Its value is “Compound NOT metabolized”.

What about the “Bacterial Biotransformation” value [4] of the same molecule?
Its value is “Compound NOT metabolized”.

What about the “Bacterial Biotransformation” value [5] of the same molecule?
The value was “Compound NOT metabolized”.

And the “Bacterial Biotransformation” value [6]?
Its value is “Compound metabolized”.

What about the “Bacterial Biotransformation” value [7] of the same molecule?
Its value is “Compound metabolized”.

What about the “Bacterial Biotransformation” value [8] of the same molecule?
Its value is “Compound metabolized”.

What about the “Bacterial Biotransformation” value [9] of the same molecule?
The value was “Compound metabolized”.

What about the “Bacterial Biotransformation” value [10] of the same molecule?
Its value is “Compound metabolized”.

And the “Bacterial Biotransformation” value [11]?
Its value is “Compound metabolized”.

And the “Bacterial Biotransformation” value [12]?
Its value is “Compound NOT metabolized”.

What about the “Bacterial Biotransformation” value [13] of the same molecule?
The value was “Compound NOT metabolized”.

And the “Bacterial Biotransformation” value [14]?
Its value is “Compound NOT metabolized”.

What about the “Bacterial Biotransformation” value [15] of the same molecule?
The value was “Compound metabolized”.

What about the “Bacterial Biotransformation” value [16] of the same molecule?
The value was “Compound NOT metabolized”.

What about the “Bacterial Biotransformation” value [17] of the same molecule?
The value was “Compound metabolized”.

And the “Bacterial Biotransformation” value [18]?
The value was “Compound metabolized”.

What about the “Bacterial Biotransformation” value [19] of the same molecule?
Its value is “Compound NOT metabolized”.

What about the “Bacterial Biotransformation” value [20] of the same molecule?
Its value is “Compound NOT metabolized”.

What does the source list for `Clc1cccc(Cl)c1N=C1NCCN1` [CLONIDINE]?
Bacterial Biotransformation [1]: Compound NOT metabolized; Bacterial Biotransformation [2]: Compound metabolized; Bacterial Biotransformation [3]: Compound NOT metabolized; Bacterial Biotransformation [4]: Compound NOT metabolized; Bacterial Biotransformation [5]: Compound NOT metabolized; Bacterial Biotransformation [6]: Compound NOT metabolized; Bacterial Biotransformation [7]: Compound NOT metabolized; Bacterial Biotransformation [8]: Compound NOT metabolized; Bacterial Biotransformation [9]: Compound metabolized; Bacterial Biotransformation [10]: Compound NOT metabolized; Bacterial Biotransformation [11]: Compound metabolized; Bacterial Biotransformation [12]: Compound NOT metabolized; Bacterial Biotransformation [13]: Compound NOT metabolized; Bacterial Biotransformation [14]: Compound metabolized; Bacterial Biotransformation [15]: Compound NOT metabolized; Bacterial Biotransformation [16]: Compound NOT metabolized; Bacterial Biotransformation [17]: Compound NOT metabolized; Bacterial Biotransformation [18]: Compound metabolized; Bacterial Biotransformation [19]: Compound NOT metabolized; Bacterial Biotransformation [20]: Compound NOT metabolized

What does the source list for `CCOc1ccccc1OCCN[C@H](C)Cc1ccc(OC)c(S(N)(=O)=O)c1.Cl` [TAMSULOSIN HYDROCHLORIDE]?
Bacterial Biotransformation [1]: Compound NOT metabolized; Bacterial Biotransformation [2]: Compound NOT metabolized; Bacterial Biotransformation [3]: Compound NOT metabolized; Bacterial Biotransformation [4]: Compound NOT metabolized; Bacterial Biotransformation [5]: Compound NOT metabolized; Bacterial Biotransformation [6]: Compound NOT metabolized; Bacterial Biotransformation [7]: Compound NOT metabolized; Bacterial Biotransformation [8]: Compound NOT metabolized; Bacterial Biotransformation [9]: Compound NOT metabolized; Bacterial Biotransformation [10]: Compound NOT metabolized; Bacterial Biotransformation [11]: Compound metabolized; Bacterial Biotransformation [12]: Compound NOT metabolized; Bacterial Biotransformation [13]: Compound NOT metabolized; Bacterial Biotransformation [14]: Compound NOT metabolized; Bacterial Biotransformation [15]: Compound NOT metabolized; Bacterial Biotransformation [16]: Compound NOT metabolized; Bacterial Biotransformation [17]: Compound NOT metabolized; Bacterial Biotransformation [18]: Compound metabolized; Bacterial Biotransformation [19]: Compound NOT metabolized; Bacterial Biotransformation [20]: Compound NOT metabolized

What does the source list for `O=C(NC(Cc1cc(=O)[nH]c2ccccc12)C(=O)O)c1ccc(Cl)cc1` (stereo not given) [REBAMIPIDE]?
Bacterial Biotransformation [1]: Compound NOT metabolized; Bacterial Biotransformation [2]: Compound NOT metabolized; Bacterial Biotransformation [3]: Compound NOT metabolized; Bacterial Biotransformation [4]: Compound metabolized; Bacterial Biotransformation [5]: Compound NOT metabolized; Bacterial Biotransformation [6]: Compound NOT metabolized; Bacterial Biotransformation [7]: Compound NOT metabolized; Bacterial Biotransformation [8]: Compound NOT metabolized; Bacterial Biotransformation [9]: Compound metabolized; Bacterial Biotransformation [10]: Compound NOT metabolized; Bacterial Biotransformation [11]: Compound NOT metabolized; Bacterial Biotransformation [12]: Compound NOT metabolized; Bacterial Biotransformation [13]: Compound metabolized; Bacterial Biotransformation [14]: Compound NOT metabolized; Bacterial Biotransformation [15]: Compound NOT metabolized; Bacterial Biotransformation [16]: Compound NOT metabolized; Bacterial Biotransformation [17]: Compound NOT metabolized; Bacterial Biotransformation [18]: Compound NOT metabolized; Bacterial Biotransformation [19]: Compound NOT metabolized; Bacterial Biotransformation [20]: Compound metabolized

Which “Bacterial Biotransformation” value [1] does the source give for `COc1ccccc1OCCNCC(O)COc1cccc2[nH]c3ccccc3c12` (stereo not given) [CARVEDILOL] here?
Its value is “Compound NOT metabolized”.

What about the “Bacterial Biotransformation” value [2] of the same molecule?
Its value is “Compound NOT metabolized”.

What about the “Bacterial Biotransformation” value [3] of the same molecule?
Its value is “Compound NOT metabolized”.

What about the “Bacterial Biotransformation” value [4] of the same molecule?
Its value is “Compound NOT metabolized”.

And the “Bacterial Biotransformation” value [5]?
The value was “Compound metabolized”.

What about the “Bacterial Biotransformation” value [6] of the same molecule?
The value was “Compound metabolized”.

And the “Bacterial Biotransformation” value [7]?
The value was “Compound metabolized”.

What about the “Bacterial Biotransformation” value [8] of the same molecule?
The value was “Compound metabolized”.

What about the “Bacterial Biotransformation” value [9] of the same molecule?
The value was “Compound metabolized”.

What about the “Bacterial Biotransformation” value [10] of the same molecule?
Its value is “Compound NOT metabolized”.

And the “Bacterial Biotransformation” value [11]?
The value was “Compound metabolized”.

What about the “Bacterial Biotransformation” value [12] of the same molecule?
Its value is “Compound NOT metabolized”.

And the “Bacterial Biotransformation” value [13]?
Its value is “Compound NOT metabolized”.

And the “Bacterial Biotransformation” value [14]?
The value was “Compound NOT metabolized”.

What about the “Bacterial Biotransformation” value [15] of the same molecule?
The value was “Compound NOT metabolized”.

And the “Bacterial Biotransformation” value [16]?
Its value is “Compound NOT metabolized”.

And the “Bacterial Biotransformation” value [17]?
The value was “Compound metabolized”.

What about the “Bacterial Biotransformation” value [18] of the same molecule?
Its value is “Compound metabolized”.

What about the “Bacterial Biotransformation” value [19] of the same molecule?
The value was “Compound NOT metabolized”.

And the “Bacterial Biotransformation” value [20]?
The value was “Compound metabolized”.

For `Nc1nc(NC2CC2)c2ncn([C@H]3C=C[C@@H](CO)C3)c2n1.Nc1nc(NC2CC2)c2ncn([C@H]3C=C[C@@H](CO)C3)c2n1.O=S(=O)(O)O` [ABACAVIR SULFATE], which “Bacterial Biotransformation” value [1] is on record?
The value was “Compound NOT metabolized”.

And the “Bacterial Biotransformation” value [2]?
Its value is “Compound metabolized”.

And the “Bacterial Biotransformation” value [3]?
The value was “Compound NOT metabolized”.

What about the “Bacterial Biotransformation” value [4] of the same molecule?
The value was “Compound NOT metabolized”.

What about the “Bacterial Biotransformation” value [5] of the same molecule?
Its value is “Compound metabolized”.

And the “Bacterial Biotransformation” value [6]?
Its value is “Compound NOT metabolized”.

What about the “Bacterial Biotransformation” value [7] of the same molecule?
Its value is “Compound NOT metabolized”.

What about the “Bacterial Biotransformation” value [8] of the same molecule?
The value was “Compound NOT metabolized”.

And the “Bacterial Biotransformation” value [9]?
Its value is “Compound NOT metabolized”.

What about the “Bacterial Biotransformation” value [10] of the same molecule?
Its value is “Compound NOT metabolized”.

What about the “Bacterial Biotransformation” value [11] of the same molecule?
The value was “Compound metabolized”.

What about the “Bacterial Biotransformation” value [12] of the same molecule?
Its value is “Compound NOT metabolized”.

And the “Bacterial Biotransformation” value [13]?
The value was “Compound metabolized”.

And the “Bacterial Biotransformation” value [14]?
The value was “Compound metabolized”.

What about the “Bacterial Biotransformation” value [15] of the same molecule?
The value was “Compound metabolized”.

And the “Bacterial Biotransformation” value [16]?
The value was “Compound metabolized”.

What about the “Bacterial Biotransformation” value [17] of the same molecule?
The value was “Compound NOT metabolized”.

What about the “Bacterial Biotransformation” value [18] of the same molecule?
The value was “Compound metabolized”.

What about the “Bacterial Biotransformation” value [19] of the same molecule?
Its value is “Compound NOT metabolized”.

And the “Bacterial Biotransformation” value [20]?
Its value is “Compound metabolized”.
